Entries after “also recorded” stand apart in the source; their conditions may differ.
Experiments:
[1] = test system: neural precursor cells in the subgranular zone of the dentate gyrus; assay: In vivo pro-neurogenic efficacy/neuroprotection assay: intracerebroventricular infusion, BrdU incorporation in the dentate gyrus; design: species or system mouse (C57/Bl6); conditions: direct administration into the brain via Alzet minipumps for one week, 10 μM unless stated
Procedure: Compounds were evaluated for pro-neurogenic efficacy/neuroprotection in our standard in vivo assay at 10 μM concentration in four 12 week old adult male C57/Bl6 mice.
In an effort to identify compounds that might stimulate the birth of new neurons, or protect newborn neurons from cell death, a library of 1,000 compounds was screened using an in vivo assay. In the initial screen, compounds were randomly pooled into groups often and administered intracerebroventricularly at a constant rate over seven days into the left lateral ventricle of living mice via Alzet osmotic mini-pumps. Compounds were administered at a concentration of 10 μM for each molecule, making a total solute concentration of 100 μM. After seven days of infusion at a constant rate of 0.5 μL/hour, a total of 84 μL of volume will have left the pump (0.00084 μMoles) and entered the cerebrospinal fluid. The average volume of a brain from a 12 week old male, C57/B6 mouse in our study is 500 mm^3. […] Under these conditions, at the end of one week of infusion each compound would be present at 1.7 μMolar concentration. Since the actual amount of chemical compound in the brain is likely to be only a fraction of this predicted level, it is reasonable to estimate that compounds were administered at mid to low-nanomolar concentrations.
During compound infusion, animals were intraperitoneally (IP) injected daily with the thymidine analog, bromodeoxyuridine (BrdU), as a means of scoring the birth and survival of proliferating neural precursor cells in the hippocampus. Because both social interaction and voluntary exercise are known to stimulate hippocampal neurogenesis, mice were housed individually without access to running wheels throughout the screening period. Following the week-long period of compound administration, animals were perfused and sacrificed. Dissected brain tissue was fixed, embedded, sectioned, stained with antibodies to BrdU, and evaluated by light microcopy as a means of quantifying neurogenesis and survival of newborn neural precursor cells localized to the subgranular layer of the dentate gyrus on the brain hemisphere contralateral to the side of mini-pump cannulation. Every fifth section throughout the entire rostral-caudal extent of the hippocampus was analyzed, and the total number of BrdU+ cells was normalized against the measured volume of the dentate gyrus. Because both increased proliferation and survival of newborn neurons are important screening parameters, the screen was conducted over seven days in order to cast a wide net to detect molecules that might augment either process. […] Intracranial infusions of either fibroblast growth factor 2 (FGF-2) or artificial cerebral spinal fluid (aCSF) vehicle via the same, week-long protocol were employed as positive and negative controls. There was no difference in the number of BrdU-labeled cells in the dentate gyrus between mice subjected to surgical pump implantation and infusion with vehicle, and mice having had no surgery (FIG. 2). This confirmed the validity of the in vivo approach to assess the ability of intracerebroventricularly infused compounds to enhance hippocampal neurogenesis in the contralateral hemisphere.
In order to further study Example 45 Compound, an in vivo structure activity relationship (SAR) study was conducted using 37 chemical derivatives of the compound for pro-neurogenic activity via direct administration into the brain of adult mice via Alzet minipumps. Compounds were administered for one week at 10 uM into 4 mice per compound, along with daily IP injections of BrdU. Following compound administration, animals were perfused, sacrificed and subjected to sectioning, staining and light microscopy in order to monitor hippocampal neurogenesis localized to the subgranular layer of the dentate gyrus. Roughly 10% of the variant compounds retained pro-neurogenic activity indistinguishable from the parent compound. […]

SNc dopaminergic neurons = assay: MPTP-toxicity to SNc dopaminergic neurons, treatment started 24 hours after the last MPTP dose; assay type: in vivo, mouse (C57Bl/6); conditions: new analogs, 10 mice for each compound
Procedure: FIG. 29A and FIG. 29B. Neuroprotective efficacy of P7C3 and P7C3A20 from MPTP-toxicity to SNc dopaminergic neurons. FIG. 29A—Test compounds were evaluated by dose response assay for their ability to block MPTP-neurotoxicity in the SNc. […] VEH group contained 30 animals: 15 animals that received the P7C3A20/P7C3 vehicle, and 15 animals that received Dimebon vehicle (saline). […] Representative immunohistochemical pictures of TH-staining in the SNc are shown below the graph. Dosing is expressed as total mg/day, and was administered intraperitoneally in divided doses twice daily. Data are expressed as mean±SEM. […] P7C3A20 does so with greater effect, and Dimebon offers no protection. Striatal sections were obtained from the same mice used in FIG. 2, and compound treatment groups are from mice that received a dose of 20 mg/kg/d.
We compared the protective efficacy of our agents in the Tatton and Kish model of MPTP administration, which induces prolonged apoptotic death of SNc dopaminergic neurons lasting about 3 weeks after a short course of daily MPTP administration. Mice were treated daily for 5 days with 30 mg/kg/day free base MPTP. On the sixth day, 24 hours after receiving the fifth and final dose of MPTP, daily treatment with P7C3, P7C3A20, Dimebon or vehicle was initiated. […] Dose-response studies were conducted in which mice received twice daily doses of each compound (or vehicle) for the ensuing 21 days (FIG. 29A). […] At the end of the 21 day treatment period, mice were sacrificed by transcardial perfusion with 4% paraformaldehyde, and fixed brains were sectioned through the striatum and SNc at 30 μM intervals. Every fourth section (spaced 120 μM apart) was stained with antibodies specific to tyrosine hydroxylase (TH) (Abcam, rabbit anti-TH, 1:2500). The TH enzyme catalyzes the conversion of the amino acid L-tyrosine to L-3,4-dihydroxyphenylalanine (L-DOPA), which serves as the precursor for dopamine. TH staining thus provides a means to immunohistochemically identify dopaminergic neurons. By counting the number of TH+ cells in the SNc, we were able to assess the neuroprotective efficacy of the three chemicals following MPTP exposure. All microscopic analysis was performed by two investigators, blind to treatment group.
15 adult male C57Bl/6 mice were individually housed for one week and then injected daily for 5 days with 30 mg/kg/day (i.p.) free base MPTP (Sigma). On day 6, 24 hours after receiving the fifth and final dose of MPTP, daily treatment with P7C3, P7C3A20, Dimebon or vehicle was initiated. Mice were housed in disposable caging, and protective gear and precautions were implemented for handling MPTP in accordance with UT Southwestern Medical Center policy. Dose response studies were conducted in which mice received twice daily doses of each compound (or vehicle) by intraperitoneal injection for the following 21 days, after which mice were sacrificed by transcardial perfusion with 4% paraformaldehyde. Brains were dissected, fixed overnight in 4% paraformaldehyde, and cryoprotected in sucrose for freezing by standard procedures. Frozen brains were sectioned through the striatum and SNc at 30 uM intervals, and every fourth section (spaced 120 μM apart) was stained with antibodies directed against tyrosine hydroxylase (TH) (Abcam, rabbit anti-TH, 1:2500). Diaminobenzidine was used as a chromagen, and tissue was counter-stained with hematoxylin to aid in visualization of the neuroanatomy. Images were analyzed with a Nikon Eclipse 90i motorized research microscope with Plan Apo lenses coupled with Metamorph Image Acquisition software (Nikon). TH+ neurons were counted with Image J software (NIH) in every section by 2 blinded investigators and results were averaged and multiplied by the sectioning interval to determine the total number of TH+ neurons per SNc.

[2] = test system: hippocampal neurogenesis in the DG; assay: Comparison of P7C3 compounds and antidepressant drugs: DG BrdU labeling after i.c.v. infusion; assay type: in vivo, mouse; conditions: 10 μM i.c.v. for 7 days
Excerpt: The neuroprotective efficacies of both P7C3 and P7C3-A20 were next compared to currently marketed antidepressant medications, using screening conditions identical to those by which P7C3 was originally discovered. This experiment was based on the antidepressant actions of P7C3 and P7C3-A20 characterized here, and the dependence on hippocampal neurogenesis for behavioral efficacy of some marketed antidepressant medications in mice.
Proneurogenic efficacies in the DG of P7C3 and P7C3A20 were compared to those of vehicle (artificial cerebrospinal fluid) and several marketed antidepressant compounds (Sigma-Aldrich, St. Louis, Mo.) according to established methods. In brief, mice were housed individually in cages without running wheels or any form of environmental enrichment, in order to create an environment predicted to have as low of a baseline level of hippocampal neurogenesis as possible. Compounds (10 μM, i.c.v.) were administered for 7 days via subcutaneously implanted Alzet osmotic minipumps connected to a cannula directed into the left lateral ventricle, with implantation day designated as day 0. Starting on day 1, mice also received daily injections of BrdU (50 mg/kg, i.p.) at 9 am daily, for 6 days. Twenty four hours after the sixth BrdU injection, mice were transcardially perfused as described above.

| SMILES | pro-neurogenic activity in the in vivo hippocampal neurogenesis assay [1] | activity in the MPTP protection assay (SNc dopaminergic neurons) | further results |
| --- | --- | --- | --- |
| O[C@H](COc1ccccc1)Cn1c2ccc(Br)cc2c2cc(Br)ccc21 [Example P7C3S41] | neuroprotective activity in both assays resides exclusively in the S enantiomer; also recorded: potency equal to or greater than P7C3 in both in vivo assays | neuroprotective activity in both assays resides exclusively in the S enantiomer; also recorded: potency equal to or greater than P7C3 in both in vivo assays |  |
| COc1cccc(NCC(F)Cn2c3ccc(Br)cc3c3cc(Br)ccc32)c1 (single isomer, unassigned) [Example 144a, N-(3-(3,6-dibromo-9H-carbazol-9-yl)-2-fluoropropyl)-3-methoxyaniline] | more active than P7C3-S114 |  |  |
| CNCCC=C1c2ccccc2CCc2ccccc21 [nortriptyline, nortrypline] |  |  | increase of DG neurogenesis (BrdU labeling) over vehicle [2]: did not affect the magnitude of neurogenesis |
| COc1cccc(NCC(O)Cn2c3ccc(Br)cc3c3cc(Br)ccc32)c1 (single isomer, unassigned; (+)) [(+) (dextrorotatory) enantiomer of 1-(3,6-Dibromo-9H-carbazo] | higher activity |  |  |
| CC(NC(C)(C)C)C(=O)c1cccc(Cl)c1 (centres unmarked) [bupropion] |  |  | increase of DG neurogenesis (BrdU labeling) over vehicle [2]: about 49% |
| CNCCC(Oc1ccc(C(F)(F)F)cc1)c1ccccc1 (centres unmarked) [fluoxetine] |  |  | increase of DG neurogenesis (BrdU labeling) over vehicle [2]: did not affect the magnitude of neurogenesis |
| COc1cccc(NCC(O)Cn2c3ccc(Br)cc3c3cc(Br)ccc32)c1 (single isomer, unassigned; (-)) [(−) enantiomer of Example 62 Compound, 1-(3,6-Dibromo-9H-carbazol-9-yl)-3-(3-methoxyphenylamino)-propan-2-ol] | displayed diminished activity |  |  |
| N[C@@H]1C[C@H]1c1ccccc1 (racemic) [tranylcypromine] |  |  | increase of DG neurogenesis (BrdU labeling) over vehicle [2]: did not affect the magnitude of neurogenesis |
| NNCCc1ccccc1 [phenelzine] |  |  | increase of DG neurogenesis (BrdU labeling) over vehicle [2]: ~52% |
| COc1cccc(NCC(C)(O)Cn2c3ccc(Br)cc3c3cc(Br)ccc32)c1 (centres unmarked) [Example P7C3-S54] | retain neuroprotective activity in both assays | retain neuroprotective activity in both assays |  |
| OC(CSc1ccccc1)Cn1c2ccc(Br)cc2c2cc(Br)ccc21 (centres unmarked) [Example P7C3-S7] | active in both | active in both | pro-neurogenic activity in the in vivo hippocampal neurogenesis assay ([1]; listed as P7C3S7): potency equal to or greater than P7C3 in both in vivo assays; activity in the MPTP protection assay (SNc dopaminergic neurons; listed as P7C3S7): potency equal to or greater than P7C3 in both in vivo assays |
| Cc1cc(C)n(CC(O)Cn2c3ccc(Br)cc3c3cc(Br)ccc32)n1 (centres unmarked) [Example P7C3-S25] | active in both | active in both |  |
| COc1cccc(NCC(O)Cn2c3ccc(Br)cc3c3cc(Br)ccc32)c1 (centres unmarked) [Example 62 Compound, 1-(3,6-Dibromo-9H-carbazol-9-yl)-3-(3-methoxyphenylamino)-propan-2-ol] | activity comparable to Example 45 Compound; also recorded: retained robust activity |  |  |
| COc1cccc(NCC(O)Cn2c3ccc(Br)cc3c3cc(Br)ccc32)c1 (single isomer, unassigned; (-)) [(−) (levorotatory) enantiomer of 1-(3,6-Dibromo-9H-carbazol-] | lower activity |  |  |
| OC(COc1ccccc1)Cn1c2ccc(Br)cc2c2cc(Br)ccc21 (centres unmarked) [Example P7C3S40] | neuroprotective activity in both assays resides exclusively in the S enantiomer | neuroprotective activity in both assays resides exclusively in the S enantiomer |  |
| O=C(O)Cn1c2ccc(Br)cc2c2cc(Br)ccc21 [Example P7C3-S165] | neuroprotection was observed in both assays | neuroprotection was observed in both assays |  |
| OC(CNc1ncccn1)Cn1c2ccc(Br)cc2c2cc(Br)ccc21 (centres unmarked) [Example P7C3-S8] | devoid of activity in both assays | devoid of activity in both assays |  |
